Measured values as given in patent US10927136B2, “Phosphorus prodrugs of pyrazolo-substituted pyrimidine sGC stimulators” (Cyclerion Therapeutics, Inc., priority 2016, dated 2021).

What was measured:
[1] = biological target: T1, HEK (Homo sapiens, UniProt Q02108+Q02153); assay: HEK EC50 quoted in rat PO PK table (assay version not stated); format: cell-based; details: listed in rat PO PK table for Intermediate 3
T1 construct: sGC enzyme activity values in HEK cells; endogenous in cells; host or cells: HEK cells
T1 sequence (Q02153 1-619): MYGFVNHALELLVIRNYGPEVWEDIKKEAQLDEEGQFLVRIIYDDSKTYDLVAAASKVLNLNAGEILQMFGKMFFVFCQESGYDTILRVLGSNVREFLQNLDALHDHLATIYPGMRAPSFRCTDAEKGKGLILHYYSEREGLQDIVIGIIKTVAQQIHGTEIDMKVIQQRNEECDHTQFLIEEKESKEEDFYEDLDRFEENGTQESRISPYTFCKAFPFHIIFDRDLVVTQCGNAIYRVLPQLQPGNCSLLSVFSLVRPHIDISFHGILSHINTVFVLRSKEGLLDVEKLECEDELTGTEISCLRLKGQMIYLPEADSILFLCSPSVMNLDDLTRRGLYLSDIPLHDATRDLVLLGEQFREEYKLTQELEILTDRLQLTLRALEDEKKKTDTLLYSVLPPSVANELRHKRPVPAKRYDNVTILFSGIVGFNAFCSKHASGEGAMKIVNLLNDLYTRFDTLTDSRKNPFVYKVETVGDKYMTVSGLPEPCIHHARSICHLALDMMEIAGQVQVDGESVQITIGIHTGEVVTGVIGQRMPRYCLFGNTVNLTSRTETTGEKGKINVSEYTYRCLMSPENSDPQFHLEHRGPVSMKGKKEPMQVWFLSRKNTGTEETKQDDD
T1 sequence (Q02108 1-690): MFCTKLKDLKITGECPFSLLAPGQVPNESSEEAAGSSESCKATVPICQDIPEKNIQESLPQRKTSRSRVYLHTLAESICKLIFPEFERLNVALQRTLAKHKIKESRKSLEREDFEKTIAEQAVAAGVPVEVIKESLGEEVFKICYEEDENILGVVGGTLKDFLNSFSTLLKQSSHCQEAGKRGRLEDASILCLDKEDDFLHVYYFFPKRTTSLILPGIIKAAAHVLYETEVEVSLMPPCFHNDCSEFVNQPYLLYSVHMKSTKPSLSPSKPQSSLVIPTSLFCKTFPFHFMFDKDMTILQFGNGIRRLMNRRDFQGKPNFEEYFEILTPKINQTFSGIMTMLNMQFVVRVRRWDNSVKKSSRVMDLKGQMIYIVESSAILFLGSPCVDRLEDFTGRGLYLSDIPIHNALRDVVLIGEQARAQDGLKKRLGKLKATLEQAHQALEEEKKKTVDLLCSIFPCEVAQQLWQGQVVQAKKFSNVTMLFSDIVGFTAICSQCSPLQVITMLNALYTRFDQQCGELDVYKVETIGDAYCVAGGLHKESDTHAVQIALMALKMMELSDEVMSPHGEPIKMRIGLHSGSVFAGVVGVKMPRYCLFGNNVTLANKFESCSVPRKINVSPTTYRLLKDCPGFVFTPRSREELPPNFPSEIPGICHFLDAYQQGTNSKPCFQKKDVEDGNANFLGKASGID

[2] = Rat PK following intravenous and oral dosing; format: in vivo, male Sprague-Dawley rats
Method: PK in rats was determined following intravenous and oral dosing.
For the intravenous (IV) and oral (PO) experiments, two groups of 4 male Sprague-Dawley rats each were used. The PO group was dosed with 3.0 mg/kg of Compound I-1 formulated as a solution in phosphate buffered saline (PBS). The IV group was dosed with 1.0 mg/kg of Compound I-1 formulated as a solution in phosphate buffered saline (PBS). IV doses were administered through an indwelling catheter in the jugular vein. Following dose administration, the catheter was flushed with ca. 0.25 mL of saline. PO doses were delivered to the stomach using a syringe and gavage tube. Following oral dosage administration, the gavage tube was flushed with approximately 0.5 mL of water to ensure complete delivery of the full dose.
Plasma samples were collected as follows: for the IV and PO experiments, samples were collected at 5 min, 15 min, 30 min, 1 hour, 2 hours, 4 hours, 6 hours, 8 hours, 12 hours, 16 hours, 20 hours and 24 hours, post-dosing. Blood samples (0.25 mL) were collected from the jugular vein. These samples were kept on ice until processed for plasma. Blood samples were centrifuged at 3200 rpm for 5 minutes at approximately 5° C. within 1 hour of collection. Plasma was directly transferred to a 96-well plate tube (0.125 mL). Plug caps were placed on the tubes and the tubes frozen at approximately −70° C. and stored until analysis.
Plasma was collected and analyzed for the presence of Compound I-1 and Intermediate 3 derived from Compound I-1.
Intermediate 3, Compound I-1 and the internal standard (IS, Compound Z) were extracted from plasma by precipitation. Samples were analyzed using liquid chromatography (LC) with tandem mass spectrometric detection (MS/MS) using electrospray ionization. The standard curve range was from 0.1 to 400 ng/mL.
Thawed plasma samples and the required amount of plasma for standards, blanks and dilutions. Prepared crash solution: room temp ACN containing 1 ng/mL Compound Z as Internal Standard. Created a 1× mixed (Intermediate 3 and Compound I-1) standard curve by diluting the 100× stocks (5 uL of each 100× standard into 495 uL of plasma). Transferred 50 uL of each plasma sample/dilution, standard, or blank. Added 200 uL of the crash solution containing IS. Vortexed for 5 minutes. Centrifuged at 16,000 g at room temperature for 10 min. Transferred 200 uL of each supernatant to a plate. Dried under nitrogen in a TurboVap at 55° C. Re-suspended each sample in 50 uL of 0.1% Formic Acid, covered and vortexed. Analyzed by LC-MSMS.

[3] = male, Sprague-Dawley, plasma, Compound I-1 1 mg/kg IV in PBS, analyte Compound I-1

EC50 [1] [nM] | prodrug in plasma samples ([2]; following PO dosing of Compound I-1 3.0 mg/kg) | AUC(0-inf) [2, 3] [ng·h/mL] | Cmax [2, 3] [ng/mL] | clearance [2, 3] [mL/min/kg] | half-life ([2]; male, Sprague-Dawley, plasma, iv, 1 mg/kg, Compound I-1 1 mg/kg IV in PBS, analyte Compound I-1) [min] | Compound
100 | – | – | – | – | – | OC(CNc1nc(-c2cc(-c3ccon3)n(Cc3ccccc3F)n2)ncc1F)(C(F)(F)F)C(F)(F)F [Intermediate 3]
– | not observed in any plasma samples | 549 | 2780 ± 2450 | 34.3 | ~9 | O=P(O)(O)OC(CNc1nc(-c2cc(-c3ccon3)n(Cc3ccccc3F)n2)ncc1F)(C(F)(F)F)C(F)(F)F [Compound I-1]
